Data on seven compounds can be found in EPA's ToxRefDB 2.

Bounds are passed on as bounds.

Data set [1] deals with rat. The conditions noted are these: Chronic toxicity; fischer; Oral; Feed; dose end: 115 week; group: systemic; systemic / hematology / erythrocyte (rbc) count differential / erythrocyte (rbc) + systemic / hematology / hematocrit (hct) / hematocrit (….
Data set [2] concerns mouse. The conditions noted are these: Carcinogenicity, b6c3f1, Oral, Water, dose end: 105 week, group: systemic.
Data set [3] deals with rat. The conditions noted are these: Subchronic oral toxicity in rodents, fischer, Water, dose end: 6 week, group: systemic.
For data set [4], the system named is rat. The conditions noted are these: Carcinogenicity; fischer; Oral; Water; dose end: 104 week; group: systemic; systemic / in life observation / body weight / body weight.
In data set [5] the test system is rat. Conditions: Carcinogenicity, fischer, Oral, Water, dose end: 105 week, group: systemic.
Data set [6] concerns rat. Conditions: Developmental neurotoxicity study; sprague dawley; Oral; Feed; dose end: 90 PND; group: cannot be grouped; reproductive / offspring survival early / dead fetuses / dead fetuses + systemic / in life observation / body weight / offspring (pup) ….
In data set [7] the test system is rat. The conditions noted are these: Subchronic oral toxicity in rodents, fischer, Water, dose end: 14 week, group: systemic.
The subject of data set [8] is mouse. Conditions: Subchronic oral toxicity in rodents, b6c3f1, Water, dose end: 14 week.
The test system of data set [9] is mouse. Conditions: Subchronic oral toxicity in rodents, b6c3f1, Gavage/Intubation, dose end: 13 week, group: systemic.
In data set [10] the test system is rat. The conditions noted are these: Subchronic oral toxicity in rodents, fischer, Gavage/Intubation, dose end: 13 week, group: systemic.
Data set [11] deals with rat. The conditions noted are these: Sub-acute repeat dose toxicity; sprague dawley; Oral; Feed; dose end: 28 day; group: systemic; systemic / clinical chemistry / cholesterol / cholesterol + systemic / clinical chemistry / triglycerides / triglycerides + systemic / ….
In data set [12] the test system is rat. Conditions: Subchronic oral toxicity in rodents, sprague dawley, Feed, dose end: 13 week, group: systemic, systemic / clinical chemistry / cholesterol / cholesterol + systemic / clinical chemistry / globulins / globulins + systemic / clinical ….
The test system of data set [13] is rat. The conditions noted are these: Sub-acute repeat dose toxicity; sprague dawley; Injection; Subcutaneous; dose end: 5 day; group: systemic; systemic / in life observation / clinical signs / erythema + systemic / in life observation / clinical signs / scabbing + systemic / in life….
The subject of data set [14] is rat. The conditions noted are these: Prenatal developmental toxicity study, sprague dawley, Oral, Gavage/Intubation, dose end: 17 GD.
The subject of data set [15] is rabbit. The conditions noted are these: Prenatal developmental toxicity study, new zealand white, Oral, Gavage/Intubation, dose end: 19 GD.
For data set [16], the system named is rat. The conditions noted are these: Developmental neurotoxicity study, other, Oral, Gavage/Intubation, dose end: 140 PND, group: cannot be grouped.
Data set [17] deals with rat. The conditions noted are these: Subchronic oral toxicity in rodents, sprague dawley, Gavage/Intubation, dose end: 90 day, group: systemic.
Data set [18] deals with rabbit. Conditions: Sub-acute dermal toxicity, new zealand white, Topical, dose end: 3 week, group: systemic, systemic / pathology gross / lymph node / enlarged + systemic / pathology gross / skin / lesion(s) (nos) + systemic / pathology microscopic….
Data set [19] deals with mouse. The conditions noted are these: Combined chronic toxicity/carcinogenicity; b6c3f1; Oral; Gavage/Intubation; dose end: 2 year; group: systemic; systemic / pathology microscopic / liver / cytomegaly + systemic / pathology microscopic / liver / hyperplasia + systemic / pathology ….
Data set [20] relates to rat. Conditions: Combined chronic toxicity/carcinogenicity, fischer, Oral, Gavage/Intubation, dose end: 2 year, group: systemic.
The subject of data set [21] is mouse. Conditions: Subchronic oral toxicity in rodents, b6c3f1, Gavage/Intubation, dose end: 13 week, group: systemic. This is another data set of the same source.
Data set [22] concerns rat. Conditions: Subchronic oral toxicity in rodents, fischer, Gavage/Intubation, dose end: 13 week, group: systemic. The source holds these as a separate data set.
Setting [23] is: systemic / in life observation / body weight / body weight + systemic / pathology microscopic / stomach / hyperplasia.
The mark [24] stands for this setting: systemic / in life observation / water consumption / water consumption.
Setting [25] is: systemic / hematology / methemoglobin / methemoglobin + systemic / in life observation / body weight / body weight gain + systemic / in life….
Setting [26] is: systemic / hematology / methemoglobin / methemoglobin.
[27] abbreviates: systemic / hematology / methemoglobin / methemoglobin + systemic / clinical chemistry / urea nitrogen / urea nitrogen.
The mark [28] stands for this setting: group: maternal, reproductive / reproductive performance / estrous cycle / length.
Setting [29] is: group: systemic, systemic / in life observation / body weight / body weight + systemic / in life observation / body weight / body weight gain + systemic / ….
Where [30] appears, read: systemic / hematology / anemia / anemia - normocytic + systemic / hematology / erythrocyte (rbc) count differential / erythrocyte (rbc) + ….
Where [31] appears, read: systemic / hematology / anemia / anemia - macrocytic + systemic / hematology / erythrocyte (rbc) count differential / erythrocyte (rbc) + ….
The mark [32] stands for this setting: group: developmental, developmental / developmental malformation / bone / wavy + developmental / developmental malformation / kidney / [other] + developmental / ….
Setting [33] is: group: maternal, reproductive / reproductive performance / resorptions / resorptions + systemic / in life observation / body weight / body weight gain + ….
[34] abbreviates: group: maternal, systemic / in life observation / body weight / body weight gain + systemic / in life observation / food consumption / food consumption.
[35] abbreviates: group: developmental, developmental / developmental malformation / heart / atrial septum defect.
[36] abbreviates: reproductive / offspring survival early / birth index / birth index + reproductive / reproductive performance / gestational length / ….
[37] abbreviates: systemic / in life observation / body weight / offspring (pup) weight + systemic / organ weight / thymus / relative to body weight.
Where [38] appears, read: systemic / clinical chemistry / [other] / [other] + systemic / clinical chemistry / chloride / chloride + systemic / clinical chemistry / ….
[39] abbreviates: systemic / pathology gross / thymus / discolored.
Where [40] appears, read: systemic / pathology microscopic / kidney / pigmentation + systemic / pathology microscopic / nose / pigmentation.
Setting [41] is: systemic / in life observation / body weight / body weight gain + systemic / in life observation / clinical signs / prostration + systemic….
The mark [42] stands for this setting: systemic / in life observation / body weight / body weight gain + systemic / organ weight / liver / absolute + systemic / organ weight / ….
Setting [43] is: systemic / in life observation / body weight / body weight + systemic / in life observation / clinical signs / labored respiration + ….
[44] abbreviates: systemic / in life observation / body weight / body weight + systemic / organ weight / kidney / absolute + systemic / organ weight / kidney….

As a reminder, the LOAEL is the lowest tested level that showed an adverse finding. The NOAEL is the highest tested level that showed no adverse finding.

For `O=N[O-].[Na+]` [Sodium nitrite], the LEL in data set [1] stood at 100 mg/kg/day; in data set [2] (setting [24]) it was 45 mg/kg/day; in [3] (systemic / hematology / methemoglobin / methemoglobin + systemic / in life observation / mortality / mortality + systemic / pathology gross…), 250 mg/kg/day; in data set [4], 125 mg/kg/day; in [5] (setting [24]), 35 mg/kg/day; in data set [6], 12.5 mg/kg/day. Also, the LEL in [7] (setting [27]) is 30 mg/kg/day; in data set [8] (setting [28]), 445 mg/kg/day; in data set [8] (group: systemic, systemic / in life observation / water consumption / water consumption), 345 mg/kg/day. The LOAEL in data set [1] is greater than 250 mg/kg/day; in data set [2] (setting [23]) it was 165 mg/kg/day; in data set [3] (setting [25]) it was greater than 500 mg/kg/day; in [4], greater than 125 mg/kg/day; in [5] (setting [23]), 130 mg/kg/day; in data set [6], greater than 25 mg/kg/day. In addition, the LOAEL in data set [7] (setting [26]) is 30 mg/kg/day; in [8] (setting [28]), greater than 1230 mg/kg/day; in data set [8] (setting [29]) it was 990 mg/kg/day. In addition, the NEL was less than 100 mg/kg/day in [1]; less than 45 mg/kg/day in [2] (setting [24]); 125 mg/kg/day in [3] (setting [25]); 62.5 mg/kg/day in data set [4]; less than 35 mg/kg/day in [5] (setting [24]); 6.25 mg/kg/day in data set [6]. Moreover, the NEL is less than 30 mg/kg/day in [7] (setting [27]), 240 mg/kg/day in [8] (setting [28]) and 190 mg/kg/day in [8] (setting [29]). For the same compound, the NOAEL in data set [1] was no less than 250 mg/kg/day; in [2] (systemic / in life observation / body weight / body weight + systemic / pathology microscopic / stomach / hyperplasia + systemic / pathology…), 90 mg/kg/day; in [3] (setting [25]) it was no less than 500 mg/kg/day; in data set [4], no less than 125 mg/kg/day; in data set [5] (systemic / in life observation / body weight / body weight + systemic / pathology microscopic / stomach / hyperplasia + systemic / in life …), 70 mg/kg/day; in [6], no less than 25 mg/kg/day. In addition, the NOAEL is less than 30 mg/kg/day in data set [7] (setting [26]), no less than 1230 mg/kg/day in data set [8] (setting [28]) and 750 mg/kg/day in data set [8] (setting [29]).
Turning to `Nc1ccccc1Cl` [2-Chloroaniline], in [9] (setting [30]), the LOAEL was found to be 80 mg/kg/day and the NOAEL turned out to be 40 mg/kg/day. In data set [9] (setting [26]), this compound had an LEL of 10 mg/kg/day and an NEL of less than 10 mg/kg/day. In [10] (setting [31]), the LOAEL is 80 mg/kg/day and the NOAEL turned out to be 40 mg/kg/day. In data set [10] (setting [26]), this compound registered an LEL of 10 mg/kg/day and an NEL of less than 10 mg/kg/day.
For `O=B[O-].O=B[O-].[Ba+2]` [Barium metaborate], in [11], the LEL turned out to be 881 mg/kg/day, the LOAEL is 881 mg/kg/day, the NEL stood at 459 mg/kg/day and the NOAEL is 459 mg/kg/day. In addition, in [12], the LEL was 349 mg/kg/day, the LOAEL worked out at 349 mg/kg/day, the NEL stood at 70 mg/kg/day and the NOAEL is 70 mg/kg/day.
On to `COCc1nnc(-c2ccc[n+]([O-])c2)n1-c1c(Cl)c(Cl)cc2[nH]c(=O)c(=O)[nH]c12`, for which, in data set [13], the LEL came to 20 mg/kg/day, the LOAEL was greater than 20 mg/kg/day, the NEL is less than 20 mg/kg/day and the NOAEL was no less than 20 mg/kg/day.
Take `Cl.O=C(c1ccc(OCCN2CCCCC2)cc1)c1c(-c2ccc(O)cc2)sc2cc(O)ccc12` [Raloxifene hydrochloride]: the LEL was found to be 1 mg/kg/day in data set [14] (group: developmental, developmental / developmental malformation / bone / wavy + developmental / developmental malformation / kidney / [other]); 0.1 mg/kg/day in data set [14] (setting [34]); 0.1 mg/kg/day in data set [15] (setting [35]); 10 mg/kg/day in data set [15] (setting [34]); 0.1 mg/kg/day in data set [16] (setting [37]). Besides, the LOAEL in data set [14] (setting [32]), in data set [14] (setting [33]), in data set [15] (setting [35]), in [15] (setting [34]) and in data set [16] (setting [36]) was greater than 10 mg/kg/day in each case. The NEL in [14] (setting [32]) is 0.1 mg/kg/day; in [14] (setting [34]), less than 0.1 mg/kg/day; in [15] (setting [35]), less than 0.1 mg/kg/day; in data set [15] (setting [34]), 1 mg/kg/day; in [16] (setting [37]), less than 0.1 mg/kg/day. Also, the NOAEL in [14] (setting [32]), in data set [14] (setting [33]), in data set [15] (setting [35]), in data set [15] (setting [34]) and in [16] (setting [36]) was no less than 10 mg/kg/day throughout.
Turning to `Cc1ccc(O)c(C)c1` [2,4-Dimethylphenol], in data set [17] (setting [38]), the lowest observed adverse effect level (LOAEL) is greater than 540 mg/kg/day and the NOAEL was no less than 540 mg/kg/day. In data set [17] (setting [39]), this compound registered an LEL of 60 mg/kg/day and an NEL of less than 60 mg/kg/day. For the same compound, in data set [18], the LEL was determined as 1200 mg/kg/day, the LOAEL was greater than 2400 mg/kg/day, the NEL was less than 1200 mg/kg/day and the NOAEL is no less than 2400 mg/kg/day.
For `COc1c(Cl)c(Cl)c(Cl)c(Cl)c1Cl` [Pentachloroanisole], the LEL is 20 mg/kg/day in [19], 10 mg/kg/day in [20] (setting [40]), 40 mg/kg/day in [21] (setting [42]) and 40 mg/kg/day in data set [22] (setting [44]). In addition, the LOAEL in data set [19] was 20 mg/kg/day; in data set [20] (systemic / in life observation / body weight / body weight + systemic / pathology microscopic / adrenal gland / hyperplasia) it was 40 mg/kg/day; in data set [21] (setting [41]) it was greater than 180 mg/kg/day; in [22] (setting [43]), greater than 180 mg/kg/day. Further, the NEL in data set [19] was less than 20 mg/kg/day; in [20] (setting [40]), less than 10 mg/kg/day; in data set [21] (setting [42]), less than 40 mg/kg/day; in data set [22] (setting [44]), less than 40 mg/kg/day. Besides, the NOAEL in data set [19] was less than 20 mg/kg/day; in [20] (systemic / in life observation / body weight / body weight + systemic / pathology microscopic / adrenal gland / hyperplasia + systemic / …), 20 mg/kg/day; in data set [21] (setting [41]) it was no less than 180 mg/kg/day; in data set [22] (setting [43]) it was no less than 180 mg/kg/day.
